For orientation: GI50 means the concentration at which growth is held to half of that of the control.

Read-outs that look alike come from different tables or passages of the source.

Assay [1] has as its system MCF-7 (human breast cancer cells). The assay is described as follows: MTT cancer cell growth inhibition. Type of assay: cell-based. The following applies: Homo sapiens, MCF7, 72 h, 72 hours incubation, read-out: GI50 MCF. The gist of the method:
(§1)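 GI50 values come from viability measured by MTT reduction at 570 nm. Plated overnight at 1500 cells per well, cultures received drug in three parallel wells across 10^−5–10^−10 M final and were incubated 72 h at 37° C. under 5% CO2 before MTT for 4 h.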

For assay [2], the system named is SGC-7901 (human gastric cancer cells). The assay is described as follows: MTT cancer cell growth inhibition. The following applies: Homo sapiens, SGC-7901, 72 h, MTT, 72 hours incubation, SGC-7901 cells; read-out: GI50 SGC-7901. Format: cell-based. Summed up: as §1
Assay [3] relates to BGC-823 (human gastric cancer cells). The assay is described as follows: MTT cancer cell growth inhibition. Format: cell-based. The following applies: Homo sapiens, BGC-823, 72 h, MTT, 72 hours incubation, read-out: GI50 BG. Summed up: as §1
In assay [4] the test system is Huh-7 (human hepatoma cells). The assay is described as follows: MTT cancer cell growth inhibition. Type of assay: cell-based. The following applies: Homo sapiens, Huh-7, 72 h, MTT, 72 hours incubation, Huh-7 cells; read-out: GI50 Huh-7. Summed up: as §1
For assay [5], the system named is DU145 (human prostate cancer cells). The assay is described as follows: MTT cancer cell growth inhibition. Format: cell-based. The following applies: Homo sapiens, DU-145, 72 h, MTT, 72 hours incubation, read-out: GI50 Du1. Summed up:
as §1

For assay [6], the system named is HT1080 (human fibrosarcoma cells). The assay is described as follows: MTT cancer cell growth inhibition. To be noted: MTT, 72 hours incubation, read-out: GI50 HT1. Format: cell-based. The gist of the method:
as §1

The test system of assay [7] is MDA-MB-231 (breast cancer cells). The assay is described as follows: MTT cancer cell growth inhibition. Type of assay: cell-based. The following applies: Homo sapiens, MDA-MB-231, 72 h, read-out: GI50 MDA-MB-231, MTT, 72 hours incubation, MDA-MB-231 cells. The gist of the method:
as §1

Assay [8] relates to lncap (prostate cancer cells). The assay is described as follows: MTT cancer cell growth inhibition. Type of assay: cell-based. The following applies: Homo sapiens, LNCaP, 72 h, MTT, 72 hours incubation, read-out: GI50 lnca. The gist of the method: as §1
The subject of assay [9] is KBM-5 (human chronic myelogenous leukemia). The assay is described as follows: MTT cancer cell growth inhibition. Type of assay: cell-based. To be noted: Homo sapiens, KBM5, 72 h, MTT, 72 hours incubation, KBM-5 cells; read-out: GI50 KBM-5. Summed up: as §1
Assay [10] concerns N-87 (human gastric cancer cells). The assay is described as follows: MTT cancer cell growth inhibition. Format: cell-based. The following applies: Homo sapiens, 72 h, MTT, 72 hours incubation, N-87 cells; read-out: GI50 N-87. Summed up: as §1
The test system of assay [11] is KBM5-T315I (human chronic myelogenous leukemia). The assay is described as follows: MTT cancer cell growth inhibition. Type of assay: cell-based. The following applies: MTT, 72 hours incubation, KBM5-T315I cells, read-out: GI50 KBM5-T315I. Summed up:
as §1

Assay [12] has as its system Hela (human cervical cancer cells). The assay is described as follows: MTT cancer cell growth inhibition. Type of assay: cell-based. To be noted: MTT, 72 hours incubation, read-out: GI50 Hela. The gist of the method:
as §1

The test system of assay [13] is PANC-1 (Pac-1, human pancreatic cancer cells). The assay is described as follows: MTT cancer cell growth inhibition. Format: cell-based. To be noted: Homo sapiens, PANC-1, 72 h, MTT, 72 hours incubation, read-out: GI50 PAN. The gist of the method:
as §1

The subject of assay [14] is K562 (human leukemia cells). The assay is described as follows: MTT cancer cell growth inhibition. Type of assay: cell-based. The following applies: Homo sapiens, K562, 72 h, MTT, 72 hours incubation, K562 cells; read-out: GI50 K562. The gist of the method:
as §1

Assay [15] concerns MOLT-4 (human acute lymphoblastic leukemia cells). The assay is described as follows: MTT cancer cell growth inhibition. Format: cell-based. The following applies: Homo sapiens, MOLT-4, 72 h, MTT, 72 hours incubation, read-out: GI50 Mol. Summed up:
as §1

For assay [16], the system named is A549 (human lung cancer cells). The assay is described as follows: MTT cancer cell growth inhibition. Type of assay: cell-based. The following applies: MTT, 72 hours incubation, read-out: GI50 A54. Summed up: as §1
The subject of assay [17] is Bel-7402 (human hepatoma cells). The assay is described as follows: MTT cancer cell growth inhibition. To be noted: MTT, 72 hours incubation, Bel-7402 cells, read-out: GI50 Bel-7402. Format: cell-based. Summed up: as §1
In assay [18] the test system is U937 (human leukemia cells). The assay is described as follows: MTT cancer cell growth inhibition. Type of assay: cell-based. To be noted: Homo sapiens, U-937, 72 h, MTT, 72 hours incubation, read-out: GI50 U93. The gist of the method:
as §1

Assay [19] has as its system H1975 (non-small cell lung adenocarcinoma). The assay is described as follows: MTT cancer cell growth inhibition. Format: cell-based. To be noted: MTT, 72 hours incubation, H1975 cells, read-out: GI50 H1975. Summed up:
as §1

The subject of assay [20] is HCC827 (human non-small cell lung cancer cells). The assay is described as follows: MTT cancer cell growth inhibition. Type of assay: cell-based. To be noted: MTT, 72 hours incubation, HCC827 cells, read-out: GI50 HCC827. Summed up:
as §1

The next assay concerns the target T1, HDAC7 (Homo sapiens, UniProt Q8WUI4).
T1 sequence (Q8WUI4 1-952): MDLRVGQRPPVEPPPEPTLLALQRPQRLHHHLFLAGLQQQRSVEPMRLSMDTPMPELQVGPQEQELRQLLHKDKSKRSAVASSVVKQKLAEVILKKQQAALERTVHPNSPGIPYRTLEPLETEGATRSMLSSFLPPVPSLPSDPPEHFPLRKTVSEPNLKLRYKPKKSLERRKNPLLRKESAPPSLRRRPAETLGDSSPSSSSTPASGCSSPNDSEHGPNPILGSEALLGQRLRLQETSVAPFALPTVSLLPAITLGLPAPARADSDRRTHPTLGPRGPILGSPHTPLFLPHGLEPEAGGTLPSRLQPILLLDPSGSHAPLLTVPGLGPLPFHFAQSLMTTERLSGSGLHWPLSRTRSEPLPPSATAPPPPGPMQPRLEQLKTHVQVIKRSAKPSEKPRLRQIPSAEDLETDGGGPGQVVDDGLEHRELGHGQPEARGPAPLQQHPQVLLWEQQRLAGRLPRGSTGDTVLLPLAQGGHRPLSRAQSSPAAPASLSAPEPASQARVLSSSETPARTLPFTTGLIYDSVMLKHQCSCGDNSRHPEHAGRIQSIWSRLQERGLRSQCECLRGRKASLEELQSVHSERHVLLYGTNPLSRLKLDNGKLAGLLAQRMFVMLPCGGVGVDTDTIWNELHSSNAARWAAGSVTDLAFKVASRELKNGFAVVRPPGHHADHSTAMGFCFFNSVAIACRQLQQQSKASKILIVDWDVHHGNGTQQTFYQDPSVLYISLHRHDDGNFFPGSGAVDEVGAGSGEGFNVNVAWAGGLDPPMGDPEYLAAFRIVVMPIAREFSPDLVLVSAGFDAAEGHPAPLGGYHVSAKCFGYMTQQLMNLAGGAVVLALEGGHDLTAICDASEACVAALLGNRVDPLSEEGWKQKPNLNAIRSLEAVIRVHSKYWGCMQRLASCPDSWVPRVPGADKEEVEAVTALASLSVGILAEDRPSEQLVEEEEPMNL
The assay is described as follows: HDAC biochemical activity measurement (fluorescent substrate deacetylation).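 Also: fluorogenic deacetylation assay using acetyl-lysine substrate at 20 µM, enzyme and compound incubated 30 min at 37 °C, then developer added, fluorescence read at 360/460 nm.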 The following applies: HDAC7; 37° C. 30 minutes.

For the compound `C/C=C1\NC(=O)c2ccc(SC)c(n2)CNC(=O)C[C@@H](/C=C/CCSC(C)=O)OC(=O)[C@H](C)NC1=O` [Compound 185], the GI50 in assay [1] (MCF-7 cells) came to 60 nM; in [2], 44 nM; in [3] (BGC-823 cells), 30 nM; in assay [4] it was 71 nM; in [5] (DU145 cells) it was 30 nM; in assay [6] (HT1080 cells), 50 nM. Moreover, the GI50 in [7] was 71 nM; in [8] (lncap cells) it was 80 nM; in [9], 28 nM; in assay [10] it was 26 nM; in assay [11] it was 13 nM; in assay [12] (Hela cells), 50 nM. The GI50 in [13] (PANC-1 cells) is 30 nM; in assay [14] it was 36 nM; in assay [15] (MOLT-4 cells) it was 50 nM; in [16] (A549 cells), 10 nM; in assay [17], 91 nM; in assay [18] (U937 cells), 50 nM. In addition, the GI50 in assay [19] is 12 nM; in assay [20], 82 nM. Moreover, the “IC50 HDAC7” value against HDAC7 is recorded as “no activity”.

Consider `C=C1NC(=O)c2cc(SC)cc(n2)CNC(=O)C[C@@H](/C=C/CCSC(C)=O)OC(=O)[C@H](C)NC1=O` [Compound 211], for which the GI50 was found to be 70 nM in assay [1] (MCF-7 cells); 71 nM in assay [2]; 70 nM in assay [3] (BGC-823 cells); 24 nM in assay [4]; 60 nM in assay [5] (DU145 cells); 40 nM in assay [6] (Homo sapiens, HT-1080, 72 h, HT1080 cells). Further, the GI50 in assay [7] turned out to be 85 nM; in [8] (lncap cells), 30 nM; in [9] it was 31 nM; in assay [10], 31 nM; in assay [11] (Homo sapiens, 72 h), 28 nM; in assay [12] (Homo sapiens, HeLa, 72 h, Hela cells), 60 nM. The GI50 in [13] (PANC-1 cells) was 70 nM; in assay [14], 19 nM; in assay [15] (MOLT-4 cells) it was 30 nM; in assay [16] (Homo sapiens, A549, 72 h, A549 cells), 40 nM; in assay [17] (Homo sapiens, Bel-7402, 72 h) it was 21 nM; in assay [18] (U937 cells), 40 nM. Besides, the GI50 was 73 nM in assay [19] (Homo sapiens, NCI-H1975, 72 h) and 55 nM in assay [20] (Homo sapiens, HCC827, 72 h). Also, the “IC50 HDAC7” value at HDAC7 is given as “no activity”.

Turning to `C/C=C1\NC(=O)c2ccc(F)c(n2)CNC(=O)C[C@@H](/C=C/CCS)OC(=O)[C@H](Cc2cccc3ccccc23)NC1=O` [Compound 126], the GI50 in assay [1] was 20 nM; in assay [2], 81 nM; in assay [3] it was 100 nM; in assay [4], 51 nM; in assay [5] it was 60 nM; in [6] (Homo sapiens, HT-1080, 72 h) it was 50 nM. In addition, the GI50 in assay [7] came to 29 nM; in [8], 20 nM; in assay [9], 41 nM; in [10], 33 nM; in assay [11] (Homo sapiens, 72 h), 37 nM; in [12] (Homo sapiens, HeLa, 72 h) it was 130 nM. For the same compound, the concentration for 50% growth inhibition (GI50) in assay [13] is 30 nM; in [14], 79 nM; in [15] it was 90 nM; in assay [16] (Homo sapiens, A549, 72 h) it was 30 nM; in assay [17] (Homo sapiens, Bel-7402, 72 h), 49 nM; in assay [18], 70 nM. The GI50 in assay [19] (Homo sapiens, NCI-H1975, 72 h) was 33 nM; in assay [20] (Homo sapiens, HCC827, 72 h) it was 38 nM. Further, the “IC50 HDAC7” value on HDAC7 is recorded as “no activity”.

The record behind these values is patent US10065990B2, “Cyclic peptide compound, and preparation method, pharmaceutical composition and use thereof” (HANGZHOU GUANYU BIO-MEDICAL CO., LTD, priority 2013, dated 2018).
